± gives the expanded uncertainty stated by the source.
Columns and labels:
[1] = cn = amount concentration of the nth substance listed, in mol/dm3; details: 298.15 K, 101 kPa, Liquid, Alternating current cell with electrodes
[2] = mn = molality of the nth substance listed, in mol/kg; details: 298.15 K, 101 kPa, Liquid, Alternating current cell with electrodes

CCCCCCCCCCCCCCCCCC[N+](C)(C)C.[O-][Cl+3]([O-])([O-])[O-] [N,N,N-trimethyl-1-octadecanaminium perchlorate] + CC(=O)CC(C)C
[1]
Details | molar conductivity [S·m2/mol]
c1 = 0.0001049 | 0.00634 ± 0.00013
c1 = 0.0001371 | 0.00601 ± 0.00012
c1 = 0.0001741 | 0.00568 ± 0.00011
c1 = 0.0002263 | 0.00531 ± 0.00011
c1 = 0.0002892 | 0.00497 ± 9.9e-05
c1 = 0.0003809 | 0.00458 ± 9.2e-05
c1 = 0.0004892 | 0.00425 ± 8.5e-05
c1 = 0.0006311 | 0.00392 ± 7.8e-05
c1 = 0.0008148 | 0.00361 ± 7.2e-05
c1 = 0.001062 | 0.0033 ± 6.6e-05
c1 = 0.001386 | 0.00302 ± 6e-05
c1 = 0.001802 | 0.00276 ± 5.5e-05
c1 = 0.002337 | 0.00251 ± 5e-05
c1 = 0.003032 | 0.00229 ± 4.6e-05

CCCC[N+](CCCC)(CCCC)CCCC.[O-][Cl+3]([O-])([O-])[O-] [tetrabutylammonium perchlorate] + CC(=O)CC(C)C
[1]
Details | molar conductivity [S·m2/mol]
c1 = 9.747e-05 | 0.00773 ± 0.00015
c1 = 0.0001341 | 0.00737 ± 0.00015
c1 = 0.0001902 | 0.00693 ± 0.00014
c1 = 0.0002367 | 0.00662 ± 0.00013
c1 = 0.0003186 | 0.00622 ± 0.00012
c1 = 0.0004325 | 0.00577 ± 0.00012
c1 = 0.0005781 | 0.00535 ± 0.00011
c1 = 0.0007683 | 0.00495 ± 9.9e-05
c1 = 0.001016 | 0.00457 ± 9.1e-05
c1 = 0.00138 | 0.00418 ± 8.4e-05
c1 = 0.001839 | 0.00383 ± 7.7e-05
c1 = 0.002457 | 0.00351 ± 7e-05
c1 = 0.003309 | 0.0032 ± 6.4e-05
c1 = 0.004418 | 0.00292 ± 5.8e-05
c1 = 0.005893 | 0.00267 ± 5.3e-05

CC[N+](CC)(CC)CC.[O-][Cl+3]([O-])([O-])[O-] [tetraethylammonium perchlorate] + CC(=O)CC(C)C
[1]
Details | molar conductivity [S·m2/mol]
c1 = 1.622e-05 | 0.00917 ± 0.00018
c1 = 2.705e-05 | 0.00898 ± 0.00018
c1 = 3.499e-05 | 0.00888 ± 0.00018
c1 = 4.526e-05 | 0.00874 ± 0.00017
c1 = 5.823e-05 | 0.00852 ± 0.00017
c1 = 7.469e-05 | 0.0083 ± 0.00017
c1 = 9.761e-05 | 0.00812 ± 0.00016

CCCCCC[N+](CCCCCC)(CCCCCC)CCCCCC.[O-][Cl+3]([O-])([O-])[O-] [tetrahexylammonium perchlorate] + CC(=O)CC(C)C
[1]
Details | molar conductivity [S·m2/mol]
c1 = 9.876e-05 | 0.00727 ± 0.00015
c1 = 0.0001295 | 0.00705 ± 0.00014
c1 = 0.0001762 | 0.00672 ± 0.00013
c1 = 0.0002207 | 0.00645 ± 0.00013
c1 = 0.0002798 | 0.00613 ± 0.00012
c1 = 0.0003687 | 0.00578 ± 0.00012
c1 = 0.0004788 | 0.00543 ± 0.00011
c1 = 0.0006209 | 0.00509 ± 0.0001
c1 = 0.0008088 | 0.00475 ± 9.5e-05
c1 = 0.001056 | 0.00441 ± 8.8e-05
c1 = 0.00138 | 0.00409 ± 8.2e-05
c1 = 0.001782 | 0.0038 ± 7.6e-05
c1 = 0.002321 | 0.00351 ± 7e-05
c1 = 0.003006 | 0.00324 ± 6.5e-05
c1 = 0.003917 | 0.00299 ± 6e-05

C[N+](C)(C)C.[O-][Cl+3]([O-])([O-])[O-] [tetramethylammonium perchlorate] + CC(=O)CC(C)C
[1]
Details | molar conductivity [S·m2/mol]
c1 = 9.338e-06 | 0.0113 ± 0.00023
c1 = 1.196e-05 | 0.0112 ± 0.00022
c1 = 1.53e-05 | 0.0111 ± 0.00022
c1 = 1.98e-05 | 0.0108 ± 0.00021
c1 = 2.582e-05 | 0.0105 ± 0.00021
c1 = 3.276e-05 | 0.0101 ± 0.0002
c1 = 4.292e-05 | 0.00975 ± 0.00019
c1 = 5.528e-05 | 0.00934 ± 0.00019
c1 = 7.008e-05 | 0.00894 ± 0.00018
c1 = 9.231e-05 | 0.00847 ± 0.00017

CCCCC[N+](CCCCC)(CCCCC)CCCCC.[O-][Cl+3]([O-])([O-])[O-] [tetrapentylammonium perchlorate] + CC(=O)CC(C)C
[2]
Details | molar conductivity [S·m2/mol]
m1 = 9.66e-05 | 0.00743 ± 0.00015
m1 = 0.0001207 | 0.00719 ± 0.00014
m1 = 0.0001685 | 0.0068 ± 0.00014
m1 = 0.0002146 | 0.00647 ± 0.00013
m1 = 0.0002922 | 0.00606 ± 0.00012
m1 = 0.0004004 | 0.00562 ± 0.00011
m1 = 0.0005296 | 0.00524 ± 0.00011
m1 = 0.0007017 | 0.00487 ± 9.7e-05
m1 = 0.0009021 | 0.00468 ± 9.4e-05
m1 = 0.001262 | 0.00413 ± 8.3e-05
m1 = 0.001674 | 0.0038 ± 7.6e-05
m1 = 0.002257 | 0.00347 ± 6.9e-05
m1 = 0.003014 | 0.00318 ± 6.4e-05
m1 = 0.004036 | 0.0029 ± 5.8e-05
m1 = 0.0054 | 0.00265 ± 5.3e-05
